The values below come from patent publication US12344597B2, “Alkoxy-substituted pyridinyl derivatives as LPA1 receptor antagonists and their use in the treatment of fibrosis” (IDORSIA PHARMACEUTICALS LTD, priority 2018, dated 2025).

As usually defined, the IC50 is the midpoint of a concentration-inhibition curve. A high value points to a need for much substance.

Chain of human LPA1 receptor (Q92633 whole entry): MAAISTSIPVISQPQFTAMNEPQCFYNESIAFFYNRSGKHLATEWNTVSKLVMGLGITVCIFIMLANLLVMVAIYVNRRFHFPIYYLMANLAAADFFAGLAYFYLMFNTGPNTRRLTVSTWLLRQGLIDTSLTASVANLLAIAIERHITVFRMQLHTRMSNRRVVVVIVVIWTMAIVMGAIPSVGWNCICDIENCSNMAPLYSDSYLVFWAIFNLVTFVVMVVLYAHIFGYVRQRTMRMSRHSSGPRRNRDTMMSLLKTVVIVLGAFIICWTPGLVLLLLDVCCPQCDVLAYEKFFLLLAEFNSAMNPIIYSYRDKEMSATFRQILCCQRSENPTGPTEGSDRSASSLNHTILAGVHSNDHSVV

The test concerns the target human LPA1 receptor (Homo sapiens (Human), UniProt Q92633). The experiment in a line: Beta-arrestin recruitment assay to determine IC50 values for human LPAR1. Type of test: cell-based. The note with it: antagonist mode, Tango EDG2-bla U2OS cells, LPA 18:1 500 nM final. The text has this:
Beta-Arrestin Recruitment Assay to Determine IC50 Values for Human LPAR1
The Tango™ EDG2-bla U2OS cells are obtained from Invitrogen. These cells contain the human LPA1 receptor cDNA linked to a TEV protease site and a Gal4-VP16 transcription factor integrated into the Tango™ GPCR-bla U2OS parental cell line. This parental cell line stably expresses a beta-arrestin/TEV protease fusion protein and the beta-lactamase (bla) reporter gene under the control of a UAS response element. Upon LPA (agonist) binding, LPA1 receptor gets activated, leading to arrestin-protease recruitment and proteolytic release of the transcription factor: The transcription factor then regulates transcription of a beta-lactamase reporter construct, which is measured upon addition of the live-cell substrate.
10′000 Tango™ EDG2-bla U2OS cells are seeded in a 384-well black with clear bottom plate in 30 μl Freestyle 293 Expression Medium (Invitrogen) and incubated for 20 h at 37° C., 5% CO2. […] IC50 is the concentration of antagonist inhibiting 50% of the maximal response.
(In general: Activated receptors often draw arrestin, which recruitment assays turn into a signal.)
As for `CC(=O)N(O)CCC(=O)N1CC(C(=O)Nc2ccc(C)nc2OC(F)F)(c2ccccc2C(C)C)C1` [Ex 12-132, N-(2-(difluoromethoxy)-6-methylpyridin-3-yl)-1-(3-(N-hydroxyacetamido)propanoyl)-3-(2-isopropylphenyl)azetidine-3-carboxamide], the IC50 came to 35 nM.

`Cc1ccc(NC(=O)C2(c3ccccc3C(C)C)CN(C(=O)N[C@H](C)C(=O)O)C2)c(OC(F)F)n1` [Ex 17-24, (3-((2-(difluoromethoxy)-6-methylpyridin-3-yl)carbamoyl)-3-(2-isopropylphenyl)azetidine-1-carbonyl)-D-alanine] registered an IC50 of 86 nM.

The molecule `Cc1ccc(NC(=O)C2(c3ccccc3C(C)C)CN(S(=O)(=O)CCCS(=O)(=O)O)C2)c(OC(F)F)n1` [Ex 13-30, 3-((3-((2-(difluoromethoxy)-6-methylpyridin-3-yl)carbamoyl)-3-(2-isopropylphenyl)azetidin-1-yl)sulfonyl)propane-1-sulfonic acid] had an IC50 of 49 nM.

On to `Cc1ccc(C(C)C)c(C2(C(=O)Nc3ccc(C)nc3OC(F)F)CN(C(=O)CC(C)(C)C(=O)O)C2)c1` [Ex 39-2, 4-(3-((2-(difluoromethoxy)-6-methylpyridin-3-yl)carbamoyl)-3-(2-isopropyl-5-methylphenyl)azetidin-1-yl)-2,2-dimethyl-4-oxobutanoic acid], for which the IC50 came to 15 nM.

In turn, `Cc1ccc(NC(=O)C2(c3ccccc3C(C)C)CN(C(=O)OCC3(C(=O)O)CC3)C2)c(OC(F)F)n1` [Ex 14-12, 1-(((3-((2-(difluoromethoxy)-6-methylpyridin-3-yl)carbamoyl)-3-(2-isopropylphenyl)azetidine-1-carbonyl)oxy)methyl)cyclopropane-1-carboxylic acid] displayed a half-maximal inhibitory concentration (IC50) of 5 nM.

Consider `COC(=O)[C@@H](NC(=O)N1CC(C(=O)Nc2ccc(C)nc2OC(F)F)(c2ccccc2C(C)C)C1)C(C)C` [Ex 17-6, methyl (3-((2-(difluoromethoxy)-6-methylpyridin-3-yl)carbamoyl)-3-(2-isopropylphenyl)azetidine-1-carbonyl)-L-valinate], for which the IC50 came to 9 nM.

Molecule `Cc1ccc(NC(=O)C2(c3ccccc3C(C)C)CN(Cc3cc(C(=O)O)no3)C2)c(OC(F)F)n1` [Ex 11-35, 5-((3-((2-(difluoromethoxy)-6-methylpyridin-3-yl)carbamoyl)-3-(2-isopropylphenyl)azetidin-1-yl)methyl)isoxazole-3-carboxylic acid] came in with a half-inhibitory concentration (IC50) of 43 nM.

The molecule `COC(=O)CCC(=O)N1CC(C(=O)Nc2ccc(C)nc2OC)(c2ccccc2C(C)C)C1` [Ex 12-61, Methyl 4-(3-(2-isopropylphenyl)-3-((2-methoxy-6-methylpyridin-3-yl)carbamoyl)azetidin-1-yl)-4-oxobutanoate] showed a half-inhibitory concentration (IC50) of 276 nM.

`CCOC(=O)c1ccnc(N2CC(C(=O)Nc3ccc(C)nc3OC(F)F)(c3ccccc3C(C)C)C2)n1` [Ex 18-14, ethyl 2-(3-((2-(difluoromethoxy)-6-methylpyridin-3-yl)carbamoyl)-3-(2-isopropylphenyl)azetidin-1-yl)pyrimidine-4-carboxylate]: the half-inhibitory concentration (IC50) worked out at 560 nM.

`Cc1ccc(NC(=O)C2(c3ccccc3C(C)C)CCN(CCO)CC2)c(OC(F)F)n1` [Ex 11-3, N-(2-(difluoromethoxy)-6-methylpyridin-3-yl)-1-(2-hydroxyethyl)-4-(2-isopropylphenyl)piperidine-4-carboxamide] displayed a 50% inhibitory concentration (IC50) of 32 nM.

The molecule `COc1ncccc1NC(=O)C1(c2ccccc2)CNC1` [Ex 85, N-(2-methoxypyridin-3-yl)-3-phenylazetidine-3-carboxamide, reference compound] yielded a concentration for half-maximal inhibition (IC50) greater than 10000 nM.

Take `Cc1ccc(NC(=O)C2(c3ccccc3C(C)C)CCN(C(=O)NCCO)CC2)c(OC(F)F)n1` [Ex 17-22, N4-(2-(difluoromethoxy)-6-methylpyridin-3-yl)-N1-(2-hydroxyethyl)-4-(2-isopropylphenyl)piperidine-1,4-dicarboxamide]: the IC50 stood at 9 nM.

Consider `CC(C)c1ccccc1C1(C(=O)Nc2cccnc2OC(F)F)CN(c2nc(C(=O)O)co2)C1` [Ex 18-30, 2-(3-((2-(difluoromethoxy)pyridin-3-yl)carbamoyl)-3-(2-isopropylphenyl)azetidin-1-yl)oxazole-4-carboxylic acid], for which the IC50 worked out at 41 nM.

On to “5-(3-((2-(difluoromethoxy)-6-methylpyridin-3-yl)carbamoyl)-3-(2-isopropylphenyl)azetidin-1-yl)-2-methylpentan-2-yl acetate [Ex 11-65]”, for which the concentration for half-maximal inhibition (IC50) was found to be 315 nM.

As for `Cc1ccc(NC(=O)C2(c3ccccc3C3CCC3)CNC2)c(OC(F)F)n1` [Ex 24, 3-(2-cyclobutylphenyl)-N-(2-(difluoromethoxy)-6-methylpyridin-3-yl)azetidine-3-carboxamide], it took 31 nM to reach half-maximal inhibition (IC50).

In turn, “2-(2-(3-((2-(difluoromethoxy)-6-methylpyridin-3-yl)carbamoyl)-3-(2-isopropylphenyl)azetidin-1-yl)ethoxy)-2-methylpropanoic acid [Ex 40]” came in with a half-inhibitory concentration (IC50) of 29 nM.

In turn, `Cc1ccc(NC(=O)C2(c3ccccc3C(C)C)CN(CC3(CC(=O)O)CC3)C2)c(OC(F)F)n1` [Ex 11-68, 2-(1-((3-((2-(difluoromethoxy)-6-methylpyridin-3-yl)carbamoyl)-3-(2-isopropylphenyl)azetidin-1-yl)methyl)cyclopropyl)acetic acid] came in with an IC50 of 23 nM.

`CCOC(=O)c1cn[nH]c1S(=O)(=O)N1CC(C(=O)Nc2ccc(C)nc2OC(F)F)(c2ccccc2C(C)C)C1` [Ex 13-24, ethyl 5-((3-((2-(difluoromethoxy)-6-methylpyridin-3-yl)carbamoyl)-3-(2-isopropylphenyl)azetidin-1-yl)sulfonyl)-1H-pyrazole-4-carboxylate]: the half-maximal inhibitory concentration (IC50) amounted to 750 nM.

Consider `CNC(=O)C(C)(C)CCN1CC(C(=O)Nc2ccc(C)nc2OC(F)F)(c2ccccc2C(C)C)C1` [Ex 11-92, N-(2-(difluoromethoxy)-6-methylpyridin-3-yl)-1-(3,3-dimethyl-4-(methylamino)-4-oxobutyl)-3-(2-isopropylphenyl)azetidine-3-carboxamide], for which the midpoint of inhibition, the IC50, lay at 44 nM.

Turning to `COCCNCC(=O)N1CCC(C(=O)Nc2ccc(C)nc2OC(F)F)(c2ccccc2C(C)C)CC1` [Ex 12-48, N-(2-(difluoromethoxy)-6-methylpyridin-3-yl)-4-(2-isopropylphenyl)-1-((2-methoxyethyl)glycyl)piperidine-4-carboxamide], the 50% inhibitory concentration (IC50) stood at 9 nM.

Turning to `Cc1ccc(NC(=O)C2(c3ccccc3C3CCOCC3)CNC2)c(OC(F)F)n1` [Ex 28, N-(2-(difluoromethoxy)-6-methylpyridin-3-yl)-3-(2-(tetrahydro-2H-pyran-4-yl)phenyl)azetidine-3-carboxamide], it took 23 nM to reach half-maximal inhibition (IC50).

As for `Cc1ccc(NC(=O)C2(c3ccccc3C(C)C)CN(C(=O)CN[C@H](C)CO)C2)c(OC(F)F)n1` [Ex 12-58, (R)-N-(2-(difluoromethoxy)-6-methylpyridin-3-yl)-1-((R)-(1-hydroxypropan-2-yl)glycyl)-3-(2-isopropylphenyl)azetidine-3-carboxamide], 10 nM corresponded to half-maximal inhibition (IC50).

`Cc1ccc(NC(=O)C2(c3ccccc3C(C)C)CN(C(=O)C[C@H]3COCCN3)C2)c(OC(F)F)n1` [Ex 12-44, (S)-N-(2-(difluoromethoxy)-6-methylpyridin-3-yl)-3-(2-isopropylphenyl)-1-(2-(morpholin-3-yl)acetyl)azetidine-3-carboxamide] had an IC50 of 79 nM.
